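Grown in 96-well plates, cells were treated for 48 hours with each compound at five concentrations. Insufficient inhibition: endpoint recorded as highest concentration tested. GI50 is the concentration that inhibits growth by half.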 Active and inactive are the calls of the source. Rule as the data show it: active = GI50 up to about 1.1 µM and inactive = higher.
Tests used:
Assay in all cases: growth of human tumour cells (NCI), 48 h
[1] = tested on: UO-31
[2] = tested on: CCRF-CEM
[3] = tested on: 786-0
[4] = tested on: DMS-273
[5] = tested on: NCI-H460
[6] = tested on: SR
[7] = tested on: K562
[8] = tested on: OVCAR-8
[9] = tested on: HCT-116
[10] = tested on: OVCAR-4
[11] = tested on: UACC-257
[12] = tested on: CAKI-1
[13] = tested on: COLO 205
[14] = tested on: SK-OV-3
[15] = tested on: OVCAR-3
[16] = tested on: LXFL 529
[17] = tested on: TK-10
[18] = tested on: SK-MEL-28
[19] = tested on: KM12
[20] = tested on: ACHN
[21] = tested on: UACC-62
[22] = tested on: HOP-92
[23] = tested on: OVCAR-5
[24] = tested on: A549
[25] = tested on: NCI-H23
[26] = tested on: M19-MEL
[27] = tested on: SF-539
[28] = tested on: Malme-3M
[29] = tested on: EKVX
[30] = tested on: SF-268
[31] = tested on: DMS-114
[32] = tested on: SNB-75
[33] = tested on: M14
[34] = tested on: DLD-1
[35] = tested on: U-251
[36] = tested on: SK-MEL-5
[37] = tested on: NCI-H522
[38] = tested on: SNB-19
[39] = tested on: SN12C
[40] = tested on: HL-60
[41] = tested on: HOP-62
[42] = tested on: NCI-H226
[43] = tested on: KM-20L2
[44] = tested on: A498
[45] = tested on: LOX IMVI
[46] = tested on: RPMI-8226
[47] = tested on: SW-620
[48] = tested on: HCC 2998
[49] = tested on: MOLT-4
[50] = tested on: SF-295
[51] = tested on: IGROV-1
[52] = tested on: HT-29
[53] = tested on: XF498
[54] = tested on: HCT-15
[55] = tested on: RXF 393
[56] = tested on: SNB-78
[57] = tested on: SK-MEL-2

Measured: GI50

COc1ccc(/C=C(\Cl)c2ccc(OC)cc2)cc1
active: [14] 0.325 µM
inactive: [1] > 100 µM | [2] > 100 µM | [3] > 100 µM | [4] > 100 µM | [5] > 100 µM | [6] > 100 µM | [7] > 100 µM | [8] > 100 µM | [9] > 100 µM | [10] > 100 µM | [11] > 100 µM | [12] > 100 µM | [13] > 100 µM | [15] > 100 µM | [16] > 100 µM | [17] > 100 µM | [18] > 100 µM | [19] > 100 µM | [20] > 100 µM | [21] 38.8 µM | [22] > 100 µM | [23] > 100 µM | [24] > 100 µM | [25] > 100 µM | [26] > 100 µM | [27] > 100 µM | [28] > 100 µM | [29] > 100 µM | [30] > 100 µM | [31] > 100 µM | [32] > 100 µM | [33] > 100 µM | [34] > 100 µM | [35] > 100 µM | [36] > 100 µM | [37] > 100 µM | [38] > 100 µM | [39] > 100 µM | [40] > 100 µM | [41] > 100 µM | [42] > 100 µM | [43] > 100 µM | [44] > 100 µM | [45] > 100 µM | [46] > 100 µM | [47] > 100 µM | [48] > 100 µM | [49] > 100 µM

Cc1cn(C2CC3C(COCN3O)O2)c(=O)[nH]c1=O (centres undefined)
> 100 µM: [54]
inactive: [50] > 100 µM | [51] > 100 µM | [1] > 100 µM | [2] > 100 µM | [3] > 100 µM | [4] > 100 µM | [5] > 100 µM | [6] > 100 µM | [52] > 100 µM | [7] > 100 µM | [8] > 100 µM | [9] > 100 µM | [53] > 100 µM | [10] > 100 µM | [11] > 100 µM | [13] > 100 µM | [14] > 100 µM | [15] > 100 µM | [16] > 100 µM | [17] > 100 µM | [55] > 100 µM | [18] > 100 µM | [19] > 100 µM | [20] > 100 µM | [21] > 100 µM | [23] > 100 µM | [24] > 100 µM | [25] > 100 µM | [26] > 100 µM | [27] > 100 µM | [29] > 100 µM | [30] > 100 µM | [31] > 100 µM | [32] 97.3 µM | [33] > 100 µM | [35] > 100 µM | [36] > 100 µM | [38] > 100 µM | [39] > 100 µM | [40] > 100 µM | [41] > 100 µM | [42] > 100 µM | [43] > 100 µM | [45] > 100 µM | [46] > 100 µM | [47] > 100 µM | [48] > 100 µM | [49] > 100 µM

CC1=C[C@H]2C[C@@]3(C)O[C@@H]([C@]4(C)CC[C@H]([C@@H](C)C(=O)O)OO4)CC3C(C)(C)[C@H]2CC1 (some centres undefined)
inactive: [50] 2.01 µM | [1] 1.2 µM | [3] 3.15 µM | [5] 1.13 µM | [8] 1.45 µM | [9] 2.16 µM | [10] 1.5 µM | [11] 1.68 µM | [12] 1.49 µM | [13] 1.44 µM | [15] 1.81 µM | [17] 2.79 µM | [55] 1.25 µM | [18] 1.56 µM | [20] 1.57 µM | [23] 3.16 µM | [24] 1.88 µM | [25] 1.91 µM | [26] 1.67 µM | [27] 1.94 µM | [29] 1.87 µM | [30] 2.17 µM | [31] 1.56 µM | [33] 1.44 µM | [57] 1.71 µM | [35] 1.65 µM | [38] 1.79 µM | [39] 1.39 µM | [41] 2.22 µM | [42] 2.01 µM | [43] 2.17 µM
active: [56] 1.08 µM | [4] 0.526 µM | [52] 0.479 µM | [53] 0.0573 µM | [16] 0.612 µM | [19] 0.397 µM | [22] 0.078 µM | [28] 0.849 µM | [32] 1.08 µM | [34] 0.916 µM | [37] 0.331 µM | [40] 0.114 µM | [45] 0.161 µM | [47] 0.259 µM | [48] 1.04 µM

— ChEMBL document CHEMBL1201862, “PubChem BioAssay data set” (2004)
